According to publication PMC9856672, “SGC-CAMKK2-1: A Chemical Probe for CAMKK2” (Cells, 2023):

What was measured:
KIT(D816V) = biological target: T1, KIT(D816V) (Homo sapiens, UniProt P10721, D816V); assay: KINOMEscan at 1 μM, KIT(D816V); assay type: binding; conditions: 1000 nM, read-out: Percent Control
T1 construct: purchased Eurofins DiscoverX KINOMEscan
From the text: (§1) Supplement cells-12-00287-s001.zip/File S2. KinomeScan data for the CAMKK2 probe and negative control.xlsx, sheet "SGC-CAMKK2-1N" | column: Percent Control

KIT(D816H) = biological target: T2, KIT(D816H) (Homo sapiens, UniProt P10721, D816H); assay: KINOMEscan at 1 μM, KIT(D816H); assay type: binding; conditions: 1000 nM, read-out: Percent Control
T2 construct: purchased Eurofins DiscoverX KINOMEscan
From the text: as §1

ERK4 = biological target: T3, ERK4 (Homo sapiens, UniProt P31152); assay: KINOMEscan at 1 μM, ERK4; assay type: binding; conditions: 1000 nM, read-out: Percent Control
T3 construct: purchased Eurofins DiscoverX KINOMEscan
From the text: as §1

CTK = biological target: T4, CTK (Homo sapiens, UniProt P42679); assay: KINOMEscan at 1 μM, CTK; assay type: binding; conditions: 1000 nM, read-out: Percent Control
T4 construct: purchased Eurofins DiscoverX KINOMEscan
From the text: as §1

SGK2 = biological target: T5, SGK2 (Homo sapiens, UniProt Q9HBY8); assay: KINOMEscan at 1 μM, SGK2; assay type: binding; conditions: 1000 nM, read-out: Percent Control
T5 construct: purchased Eurofins DiscoverX KINOMEscan
From the text: as §1

EPHB6 = biological target: T6, EPHB6 (Homo sapiens, UniProt O15197); assay: KINOMEscan at 1 μM, EPHB6; assay type: binding; conditions: 1000 nM, read-out: Percent Control
T6 construct: purchased Eurofins DiscoverX KINOMEscan
From the text: as §1

FGFR3 = biological target: T7, FGFR3 (Homo sapiens, UniProt P22607); assay: KINOMEscan at 1 μM, FGFR3; assay type: binding; conditions: 1000 nM, read-out: Percent Control
T7 construct: purchased Eurofins DiscoverX KINOMEscan
From the text: as §1

JNK2 = biological target: T8, JNK2 (Homo sapiens, UniProt P45984); assay: KINOMEscan at 1 μM, JNK2; assay type: binding; conditions: 1000 nM, read-out: Percent Control
T8 construct: purchased Eurofins DiscoverX KINOMEscan
From the text: as §1

PRKX = biological target: T9, PRKX (Homo sapiens, UniProt P51817); assay: KINOMEscan at 1 μM, PRKX; assay type: binding; conditions: 1000 nM, read-out: Percent Control
T9 construct: purchased Eurofins DiscoverX KINOMEscan
From the text: as §1

MST2 = biological target: T10, MST2 (Homo sapiens, UniProt Q13188); assay: KINOMEscan at 1 μM, MST2; assay type: binding; conditions: 1000 nM, read-out: Percent Control
T10 construct: purchased Eurofins DiscoverX KINOMEscan
From the text: as §1

[1] = biological target: T11, RPS6KA4(Kin.Dom.2-C-terminal) (Homo sapiens, UniProt O75676); assay: KINOMEscan at 1 μM, RPS6KA4(Kin.Dom.2-C-terminal); assay type: binding; conditions: 1000 nM, read-out: Percent Control
T11 construct: RPS6KA4(Kin.Dom.2-C-terminal); purchased Eurofins DiscoverX KINOMEscan
From the text: as §1

PRKD2 = biological target: T12, PRKD2 (Homo sapiens, UniProt Q9BZL6); assay: KINOMEscan at 1 μM, PRKD2; assay type: binding; conditions: 1000 nM, read-out: Percent Control
T12 construct: purchased Eurofins DiscoverX KINOMEscan
From the text: as §1

ALK(L1196M) = biological target: T13, ALK(L1196M) (Homo sapiens, UniProt Q9UM73, L1196M); assay: KINOMEscan at 1 μM, ALK(L1196M); assay type: binding; conditions: 1000 nM, read-out: Percent Control
T13 construct: purchased Eurofins DiscoverX KINOMEscan
From the text: as §1

BRSK1 = biological target: T14, BRSK1 (Homo sapiens, UniProt Q8TDC3); assay: KINOMEscan at 1 μM, BRSK1; assay type: binding; conditions: 1000 nM, read-out: Percent Control
T14 construct: purchased Eurofins DiscoverX KINOMEscan
From the text: as §1

CSNK1E = biological target: T15, CSNK1E (Homo sapiens, UniProt P49674); assay: KINOMEscan at 1 μM, CSNK1E; assay type: binding; conditions: 1000 nM, read-out: Percent Control
T15 construct: purchased Eurofins DiscoverX KINOMEscan
From the text: as §1

CSNK1D = biological target: T16, CSNK1D (Homo sapiens, UniProt P48730); assay: KINOMEscan at 1 μM, CSNK1D; assay type: binding; conditions: 1000 nM, read-out: Percent Control
T16 construct: purchased Eurofins DiscoverX KINOMEscan
From the text: as §1

MTOR = biological target: T17, MTOR (Homo sapiens, UniProt P42345); assay: KINOMEscan binding assay at 1 μM, MTOR; conditions: Compound Concentration 1000 nM; read-out: Percent Control
T17 construct: purchased Eurofins DiscoverX KINOMEscan
From the text: as §1

PRKCE = biological target: T18, PRKCE (Homo sapiens, UniProt Q02156); assay: KINOMEscan binding assay at 1 μM, PRKCE; conditions: Compound Concentration 1000 nM; read-out: Percent Control
T18 construct: purchased Eurofins DiscoverX KINOMEscan
From the text: as §1

SGK3 = biological target: T19, SGK3 (Homo sapiens, UniProt Q96BR1); assay: KINOMEscan binding assay at 1 μM, SGK3; conditions: Compound Concentration 1000 nM; read-out: Percent Control
T19 construct: purchased Eurofins DiscoverX KINOMEscan
From the text: as §1

[2] = biological target: T20, ABL1(F317L)-nonphosphorylated (Homo sapiens, UniProt P00519, F317L); assay: KINOMEscan 1 μM, ABL1(F317L)-nonphosphorylated; assay type: binding; conditions: 1000 nM; Entrez ABL1; read-out: Percent Control
T20 construct: purchased Eurofins DiscoverX KINOMEscan
From the text: (§2) Supplement cells-12-00287-s001.zip/File S2. KinomeScan data for the CAMKK2 probe and negative control.xlsx, sheet "SGC-CAMKK2-1" | column: Percent Control

STK35 = biological target: T21, STK35 (Homo sapiens, UniProt Q8TDR2); assay: KINOMEscan 1 μM, STK35; assay type: binding; conditions: 1000 nM; Entrez STK35; read-out: Percent Control
T21 construct: purchased Eurofins DiscoverX KINOMEscan
From the text: as §2

PIK3CA(H1047L) = biological target: T22, PIK3CA(H1047L) (Homo sapiens, UniProt P42336, H1047L); assay: KINOMEscan 1 μM, PIK3CA(H1047L); assay type: binding; conditions: 1000 nM; Entrez PIK3CA; read-out: Percent Control
T22 construct: purchased Eurofins DiscoverX KINOMEscan
From the text: as §2

CLK2 = biological target: T23, CLK2 (Homo sapiens, UniProt P49760); assay: KINOMEscan 1 μM, CLK2; assay type: binding; conditions: 1000 nM; Entrez CLK2; read-out: Percent Control
T23 construct: purchased Eurofins DiscoverX KINOMEscan
From the text: as §2

MEK5 = biological target: T24, MEK5 (Homo sapiens, UniProt Q13163); assay: KINOMEscan 1 μM, MEK5; assay type: binding; conditions: 1000 nM; Entrez MAP2K5; read-out: Percent Control
T24 construct: purchased Eurofins DiscoverX KINOMEscan
From the text: as §2

[3] = biological target: T25, JAK1(JH2domain-pseudokinase) (Homo sapiens, UniProt P23458); assay: KINOMEscan 1 μM, JAK1(JH2domain-pseudokinase); assay type: binding; conditions: 1000 nM; Entrez JAK1; read-out: Percent Control
T25 construct: JAK1(JH2domain-pseudokinase); purchased Eurofins DiscoverX KINOMEscan
From the text: as §2

RIOK1 = biological target: T26, RIOK1 (Homo sapiens, UniProt Q9BRS2); assay: KINOMEscan 1 μM, RIOK1; assay type: binding; conditions: 1000 nM; Entrez RIOK1; read-out: Percent Control
T26 construct: purchased Eurofins DiscoverX KINOMEscan
From the text: as §2

CDKL2 = biological target: T27, CDKL2 (Homo sapiens, UniProt Q92772); assay: KINOMEscan 1 μM, CDKL2; assay type: binding; conditions: 1000 nM; Entrez CDKL2; read-out: Percent Control
T27 construct: purchased Eurofins DiscoverX KINOMEscan
From the text: as §2

BRSK2 = biological target: T28, BRSK2 (Homo sapiens, UniProt Q8IWQ3); assay: KINOMEscan 1 μM, BRSK2; assay type: binding; conditions: 1000 nM; Entrez BRSK2; read-out: Percent Control
T28 construct: purchased Eurofins DiscoverX KINOMEscan
From the text: as §2

CAMK2G = biological target: T29, CAMK2G (Homo sapiens, UniProt Q13555); assay: KINOMEscan 1 μM, CAMK2G; assay type: binding; conditions: 1000 nM; Entrez CAMK2G; read-out: Percent Control
T29 construct: purchased Eurofins DiscoverX KINOMEscan
From the text: as §2

CDC2L5 = biological target: T30, CDC2L5 (Homo sapiens, UniProt Q14004); assay: KINOMEscan 1 μM, CDC2L5; assay type: binding; conditions: 1000 nM; Entrez CDK13; read-out: Percent Control
T30 construct: purchased Eurofins DiscoverX KINOMEscan
From the text: as §2

GRK2 = biological target: T31, GRK2 (Homo sapiens, UniProt P25098); assay: KINOMEscan 1 μM, GRK2; assay type: binding; conditions: 1000 nM; Entrez ADRBK1; read-out: Percent Control
T31 construct: purchased Eurofins DiscoverX KINOMEscan
From the text: as §2

NEK5 = biological target: T32, NEK5 (Homo sapiens, UniProt Q6P3R8); assay: KINOMEscan 1 μM, NEK5; assay type: binding; conditions: 1000 nM; Entrez NEK5; read-out: Percent Control
T32 construct: purchased Eurofins DiscoverX KINOMEscan
From the text: as §2

TESK1 = biological target: T33, TESK1 (Homo sapiens, UniProt Q15569); assay: DiscoverX KINOMEscan binding assay at 1 μM, TESK1; conditions: Compound Concentration 1000 nM, read-out: Percent Control
T33 construct: purchased Eurofins DiscoverX KINOMEscan
From the text: as §2

VRK2 = biological target: T34, VRK2 (Homo sapiens, UniProt Q86Y07); assay: DiscoverX KINOMEscan binding assay at 1 μM, VRK2; conditions: Compound Concentration 1000 nM, read-out: Percent Control
T34 construct: purchased Eurofins DiscoverX KINOMEscan
From the text: as §2

T29 sequence (Q13555 whole entry): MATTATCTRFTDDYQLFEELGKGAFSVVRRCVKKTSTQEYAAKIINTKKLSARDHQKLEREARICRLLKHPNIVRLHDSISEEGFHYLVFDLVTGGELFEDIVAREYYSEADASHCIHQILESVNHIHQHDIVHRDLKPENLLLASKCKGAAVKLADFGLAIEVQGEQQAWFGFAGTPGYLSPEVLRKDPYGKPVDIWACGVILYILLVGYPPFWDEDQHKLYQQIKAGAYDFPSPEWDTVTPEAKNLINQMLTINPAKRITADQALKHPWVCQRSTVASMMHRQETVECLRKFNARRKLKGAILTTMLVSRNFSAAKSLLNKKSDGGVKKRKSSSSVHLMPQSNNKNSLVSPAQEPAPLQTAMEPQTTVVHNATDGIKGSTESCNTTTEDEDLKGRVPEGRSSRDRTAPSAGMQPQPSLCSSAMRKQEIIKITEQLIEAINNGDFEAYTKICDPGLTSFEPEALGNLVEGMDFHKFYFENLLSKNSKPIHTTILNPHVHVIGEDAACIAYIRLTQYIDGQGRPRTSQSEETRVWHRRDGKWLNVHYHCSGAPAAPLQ
T8 sequence (P45984 whole entry): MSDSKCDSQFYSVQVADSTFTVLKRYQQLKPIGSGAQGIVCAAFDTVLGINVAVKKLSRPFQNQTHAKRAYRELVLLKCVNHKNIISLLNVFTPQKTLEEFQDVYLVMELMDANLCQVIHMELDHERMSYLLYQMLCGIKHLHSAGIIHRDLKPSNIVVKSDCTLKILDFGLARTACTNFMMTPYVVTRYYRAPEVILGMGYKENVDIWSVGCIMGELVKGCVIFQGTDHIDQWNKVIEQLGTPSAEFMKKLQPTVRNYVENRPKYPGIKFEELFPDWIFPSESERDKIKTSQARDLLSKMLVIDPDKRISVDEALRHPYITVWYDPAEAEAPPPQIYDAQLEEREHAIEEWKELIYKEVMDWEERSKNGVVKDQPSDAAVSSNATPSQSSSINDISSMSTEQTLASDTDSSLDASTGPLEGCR
T33 sequence (Q15569 whole entry): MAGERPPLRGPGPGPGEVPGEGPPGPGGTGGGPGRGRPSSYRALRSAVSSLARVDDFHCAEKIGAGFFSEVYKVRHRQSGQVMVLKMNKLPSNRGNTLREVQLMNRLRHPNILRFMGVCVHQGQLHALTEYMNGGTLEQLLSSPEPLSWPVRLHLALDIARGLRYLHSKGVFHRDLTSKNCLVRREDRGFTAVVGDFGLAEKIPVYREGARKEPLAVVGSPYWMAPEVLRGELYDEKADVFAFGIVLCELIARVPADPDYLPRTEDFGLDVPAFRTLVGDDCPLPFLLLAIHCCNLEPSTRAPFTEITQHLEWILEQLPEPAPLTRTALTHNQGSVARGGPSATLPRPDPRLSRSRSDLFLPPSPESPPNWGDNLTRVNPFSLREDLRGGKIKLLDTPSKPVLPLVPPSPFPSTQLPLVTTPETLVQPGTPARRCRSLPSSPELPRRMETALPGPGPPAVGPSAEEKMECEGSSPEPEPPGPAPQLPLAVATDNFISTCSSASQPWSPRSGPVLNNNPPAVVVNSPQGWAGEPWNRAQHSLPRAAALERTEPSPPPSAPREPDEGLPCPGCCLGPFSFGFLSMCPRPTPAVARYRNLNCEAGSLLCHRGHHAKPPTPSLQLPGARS
T2 sequence (P10721 26-976 D816H): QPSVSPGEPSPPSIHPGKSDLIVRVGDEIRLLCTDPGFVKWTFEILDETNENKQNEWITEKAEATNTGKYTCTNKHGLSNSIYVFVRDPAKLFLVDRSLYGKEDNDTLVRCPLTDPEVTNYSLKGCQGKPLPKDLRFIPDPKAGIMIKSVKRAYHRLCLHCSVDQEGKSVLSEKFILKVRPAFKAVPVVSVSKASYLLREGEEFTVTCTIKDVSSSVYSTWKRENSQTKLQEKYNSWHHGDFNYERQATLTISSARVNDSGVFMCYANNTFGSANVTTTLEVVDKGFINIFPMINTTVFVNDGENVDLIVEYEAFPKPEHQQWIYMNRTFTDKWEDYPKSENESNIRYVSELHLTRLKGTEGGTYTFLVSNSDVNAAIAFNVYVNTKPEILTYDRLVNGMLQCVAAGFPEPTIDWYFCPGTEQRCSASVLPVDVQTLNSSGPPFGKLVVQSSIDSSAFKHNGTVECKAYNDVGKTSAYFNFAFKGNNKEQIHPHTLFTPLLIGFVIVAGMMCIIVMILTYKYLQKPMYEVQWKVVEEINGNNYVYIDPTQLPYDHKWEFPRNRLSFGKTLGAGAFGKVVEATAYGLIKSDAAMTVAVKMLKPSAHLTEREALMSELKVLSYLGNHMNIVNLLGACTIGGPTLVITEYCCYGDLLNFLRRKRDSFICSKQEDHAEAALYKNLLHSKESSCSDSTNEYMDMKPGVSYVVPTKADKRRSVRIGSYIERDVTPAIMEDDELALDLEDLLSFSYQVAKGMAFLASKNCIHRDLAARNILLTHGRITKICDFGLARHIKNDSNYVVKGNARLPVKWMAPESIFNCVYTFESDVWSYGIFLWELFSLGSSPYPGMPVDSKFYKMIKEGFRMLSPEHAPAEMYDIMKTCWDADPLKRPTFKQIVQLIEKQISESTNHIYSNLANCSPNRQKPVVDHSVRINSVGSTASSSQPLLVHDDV
T24 sequence (Q13163 whole entry): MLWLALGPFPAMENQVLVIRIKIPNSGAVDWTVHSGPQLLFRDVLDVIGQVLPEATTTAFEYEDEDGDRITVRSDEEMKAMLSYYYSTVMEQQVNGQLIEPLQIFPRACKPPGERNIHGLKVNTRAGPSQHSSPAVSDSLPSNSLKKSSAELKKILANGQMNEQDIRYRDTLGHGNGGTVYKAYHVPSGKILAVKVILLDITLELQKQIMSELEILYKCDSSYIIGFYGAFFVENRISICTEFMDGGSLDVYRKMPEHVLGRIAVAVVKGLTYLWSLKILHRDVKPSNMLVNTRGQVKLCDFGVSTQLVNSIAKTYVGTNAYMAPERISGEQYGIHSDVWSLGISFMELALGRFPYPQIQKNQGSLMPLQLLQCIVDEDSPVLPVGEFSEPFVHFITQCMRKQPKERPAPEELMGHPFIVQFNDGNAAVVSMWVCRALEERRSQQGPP
T32 sequence (Q6P3R8 whole entry): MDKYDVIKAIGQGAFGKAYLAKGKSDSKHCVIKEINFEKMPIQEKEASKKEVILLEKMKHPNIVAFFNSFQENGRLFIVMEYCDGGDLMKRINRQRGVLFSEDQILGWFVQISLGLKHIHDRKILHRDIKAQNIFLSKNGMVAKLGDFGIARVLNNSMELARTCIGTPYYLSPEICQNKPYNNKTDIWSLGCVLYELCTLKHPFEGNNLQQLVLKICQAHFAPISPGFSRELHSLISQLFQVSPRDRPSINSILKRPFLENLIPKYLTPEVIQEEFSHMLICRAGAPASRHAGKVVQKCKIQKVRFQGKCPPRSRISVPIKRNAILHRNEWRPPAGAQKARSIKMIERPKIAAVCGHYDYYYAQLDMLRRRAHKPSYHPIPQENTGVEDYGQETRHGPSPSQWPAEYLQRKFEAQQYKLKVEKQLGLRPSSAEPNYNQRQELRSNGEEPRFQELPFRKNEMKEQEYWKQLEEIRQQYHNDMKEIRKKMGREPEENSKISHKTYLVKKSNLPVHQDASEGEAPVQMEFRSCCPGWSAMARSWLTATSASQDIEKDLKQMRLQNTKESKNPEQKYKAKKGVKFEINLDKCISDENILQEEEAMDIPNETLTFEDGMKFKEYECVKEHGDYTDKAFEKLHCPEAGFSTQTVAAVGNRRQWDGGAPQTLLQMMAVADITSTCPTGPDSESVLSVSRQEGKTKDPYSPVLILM
T28 sequence (Q8IWQ3 whole entry): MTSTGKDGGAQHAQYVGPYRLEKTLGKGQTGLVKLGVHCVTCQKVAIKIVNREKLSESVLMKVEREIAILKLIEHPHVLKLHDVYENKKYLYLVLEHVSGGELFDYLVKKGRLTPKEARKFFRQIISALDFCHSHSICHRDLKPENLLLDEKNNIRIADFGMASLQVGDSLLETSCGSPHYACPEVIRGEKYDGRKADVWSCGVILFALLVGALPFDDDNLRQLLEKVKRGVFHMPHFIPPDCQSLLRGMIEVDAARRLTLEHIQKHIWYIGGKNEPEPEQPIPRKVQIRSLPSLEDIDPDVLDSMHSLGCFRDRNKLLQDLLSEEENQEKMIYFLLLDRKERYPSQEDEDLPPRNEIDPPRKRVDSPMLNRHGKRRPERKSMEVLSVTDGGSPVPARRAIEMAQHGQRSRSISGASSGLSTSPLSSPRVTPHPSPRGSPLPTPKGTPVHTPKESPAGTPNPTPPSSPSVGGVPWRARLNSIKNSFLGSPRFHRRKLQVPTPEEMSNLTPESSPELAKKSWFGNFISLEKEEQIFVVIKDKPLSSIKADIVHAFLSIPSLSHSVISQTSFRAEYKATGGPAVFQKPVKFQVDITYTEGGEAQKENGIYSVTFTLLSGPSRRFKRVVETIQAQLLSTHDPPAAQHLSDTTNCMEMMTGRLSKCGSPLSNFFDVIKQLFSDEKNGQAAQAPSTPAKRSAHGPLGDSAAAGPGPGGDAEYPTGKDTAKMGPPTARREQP
T21 sequence (Q8TDR2 whole entry): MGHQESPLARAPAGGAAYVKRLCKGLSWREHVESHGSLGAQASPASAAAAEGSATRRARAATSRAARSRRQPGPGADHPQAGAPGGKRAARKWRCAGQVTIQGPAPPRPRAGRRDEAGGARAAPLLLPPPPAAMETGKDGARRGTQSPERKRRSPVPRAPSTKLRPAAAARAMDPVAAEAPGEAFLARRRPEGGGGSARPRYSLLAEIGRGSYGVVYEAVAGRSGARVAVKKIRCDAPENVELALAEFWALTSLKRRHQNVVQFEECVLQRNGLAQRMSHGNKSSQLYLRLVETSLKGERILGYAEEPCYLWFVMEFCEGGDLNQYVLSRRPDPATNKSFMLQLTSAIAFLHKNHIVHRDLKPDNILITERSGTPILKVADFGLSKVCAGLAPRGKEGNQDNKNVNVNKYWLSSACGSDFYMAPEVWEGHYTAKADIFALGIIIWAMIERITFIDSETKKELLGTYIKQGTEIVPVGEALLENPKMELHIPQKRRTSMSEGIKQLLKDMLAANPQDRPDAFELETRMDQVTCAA
T1 sequence (P10721 26-976 D816V): as the sequence (P10721 26-976 D816H) above, with H791V counted along it

O=C(O)c1ccc(-c2coc3ncc(-c4ccccc4)cc23)cc1Cl [SGC-CAMKK2-1N (UNC-YL-83)]
remaining binding at 1 µM (KIT(D816V)): 32% | remaining binding at 1 µM (KIT(D816H)): 57% | remaining binding at 1 µM (ERK4): 58% | remaining binding at 1 µM (CTK): 63% | remaining binding at 1 µM (SGK2): 73% | remaining binding at 1 µM (EPHB6): 75% | remaining binding at 1 µM (FGFR3): 76% | remaining binding at 1 µM (JNK2): 76% | remaining binding at 1 µM (PRKX): 76% | remaining binding at 1 µM (MST2): 79% | remaining binding at 1 µM [1]: 82% | remaining binding at 1 µM (PRKD2): 91% | remaining binding at 1 µM (ALK(L1196M)): 92% | remaining binding at 1 µM (BRSK1): 92% | remaining binding at 1 µM (CSNK1E): 92% | remaining binding at 1 µM (CSNK1D): 99% | remaining binding at 1 µM (MTOR): 100% | remaining binding at 1 µM (PRKCE): 100% | remaining binding at 1 µM (SGK3): 100%

Cc1cccc(-c2cnc3occ(-c4ccc(C(=O)O)c(C5CCCC5)c4)c3c2)c1 [SGC-CAMKK2-1 (YL-36)]
remaining binding at 1 µM [2]: 71% | remaining binding at 1 µM (STK35): 73% | remaining binding at 1 µM (PIK3CA(H1047L)): 78% | remaining binding at 1 µM (CLK2): 79% | remaining binding at 1 µM (MEK5): 84% | remaining binding at 1 µM [3]: 90% | remaining binding at 1 µM (RIOK1): 92% | remaining binding at 1 µM (CDKL2): 96% | remaining binding at 1 µM (BRSK2): 100% | remaining binding at 1 µM (CAMK2G): 100% | remaining binding at 1 µM (CDC2L5): 100% | remaining binding at 1 µM (GRK2): 100% | remaining binding at 1 µM (NEK5): 100% | remaining binding at 1 µM (TESK1): 100% | remaining binding at 1 µM (VRK2): 100%
